Data published in publication PMC5715404, “Design, Synthesis, and Evaluation of Ribose-Modified Anilinopyrimidine Derivatives as EGFR Tyrosine Kinase Inhibitors” (Frontiers in Chemistry, 2017).
“Also recorded” adds a separate entry of the source.

Experiments:
[1] = target: T1, EGFR L858R/T790M (Homo sapiens, UniProt P00533, L858R/T790M); assay: ELISA-based EGFR-TK kinase assay, EGFR L858R/T790M; format: biochemical; conditions: for IC50 / inhibitory activity against EGFR tyrosine kinases (in words): ELISA; for IC50: 10 μmol/L ATP solution, 37°C 1 h, mean ± SD of at least two determinations, read-out: EGFR tyrosine kinase IC50, EGFR T790M/L858R; for inhibitory activity against EGFR tyrosine kinases (in words): EGFR WT and EGFR L858R/T790M; for selectivity for EGFR L858R/T790M over WT EGFR (in words): EGFR L858R/T790M versus WT EGFR
T1 construct: Kinases domain of EGFR WT and EGFR L858R/T790M were expressed; made in house; host or cells: baculovirus expression system (Bac-to-Bac)
T1 sequence (P00533 712-979 T790M/L858R limits assumed): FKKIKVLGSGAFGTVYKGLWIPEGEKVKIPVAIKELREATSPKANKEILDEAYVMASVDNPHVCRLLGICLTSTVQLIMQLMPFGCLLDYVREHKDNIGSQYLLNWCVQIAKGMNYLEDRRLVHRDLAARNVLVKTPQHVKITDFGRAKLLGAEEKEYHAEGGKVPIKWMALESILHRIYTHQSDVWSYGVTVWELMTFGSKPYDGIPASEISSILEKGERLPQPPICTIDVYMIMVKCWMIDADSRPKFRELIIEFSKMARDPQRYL
Protocol: (§1) Kinases domain of EGFR WT and EGFR L858R/T790M were expressed using the Bac-to-Bac™ baculo virus expression system (Invitrogen, Carlsbad, CA, USA) and purified in Ni-NTA columns (QIAGEN Inc., Valencia, CA, USA). The kinase activity was evaluated with enzyme-linked immunosorbent assay (ELISA). Briefly, 20 μg/mL Poly (Glu, Tyr) 4:1 (Sigma, St. Louis, MO) was precoated in 96-well ELISA plates as substrate. After adding 50 μL of 10 μmol/L ATP solution which was diluted in kinase reaction buffer (50 mM HEPES pH 7.4, 20 mM MgCl2, 0.1 mM MnCl2, 0.2 mM Na3VO4, 1 mM DTT), the plate was treated with 1 μL of indicated concentrations of compounds (dissolved in DMSO) per well. Experiments at each concentration were performed in duplicate. Reaction was initiated by adding tyrosine kinase diluted in kinase reaction buffer. After incubation at 37°C for 1 h, the wells were washed three times with phosphate buffered saline (PBS) containing 0.1% Tween 20 (T-PBS). One hundred microliters of anti-phosphotyrosine (PY99) antibody (1:1,000, Santa Cruz Biotechnology, Santa Cruz, CA) diluted in T-PBS containing 5 mg/mL BSA was added and the plate was incubated at 37°C for 30 min. After the plate was washed three times, 100 μL horseradish peroxidase-conjugated goat anti-mouse IgG (1:2,000, Calbiochem, SanDiego, CA) was added and the plate was incubated at 37°C for 30 min. The plate was washed, added with 100 μL citrate buffer (0.1 M, pH 5.5) containing 0.03% H2O2. Then 2 mg/mL o-phenylenediamine was added, and samples were incubated at room temperature until color emerged. The reaction was terminated immediately by adding 50 μL of 2 M H2SO4. Plate was read using a multiwell spectrophotometer (VERSAmax™, Molecular Devices, Sunnyvale, CA, USA) at 492 nm. The inhibitory rate (%) was calculated with the formula: [1 − (A492 treated/A492 control)] × 100%. IC50 values were calculated from the inhibitory curves.

[2] = target: T2, EGFR WT (Homo sapiens, UniProt P00533); assay: ELISA-based EGFR-TK kinase assay, EGFR WT; format: biochemical; conditions: 10 μmol/L ATP solution, 37°C 1 h, mean ± SD of at least two determinations, read-out: EGFR tyrosine kinase IC50, EGFR
T2 construct: Kinases domain of EGFR WT and EGFR L858R/T790M were expressed; made in house; host or cells: baculovirus expression system (Bac-to-Bac)
T2 sequence (P00533 712-979 limits assumed): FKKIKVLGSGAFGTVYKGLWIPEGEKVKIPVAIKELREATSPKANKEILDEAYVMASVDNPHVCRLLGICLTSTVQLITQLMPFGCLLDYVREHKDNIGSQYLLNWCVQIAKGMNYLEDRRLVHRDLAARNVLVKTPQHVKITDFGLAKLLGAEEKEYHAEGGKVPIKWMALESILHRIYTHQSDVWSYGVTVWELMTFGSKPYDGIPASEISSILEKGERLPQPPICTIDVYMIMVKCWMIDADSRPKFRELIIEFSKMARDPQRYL
Protocol: as §1

Structure (SMILES) | IC50 [1] [µM] | IC50 [2] [µM] | inhibitory activity against EGFR tyrosine kinases (in words) [1] | selectivity for EGFR L858R/T790M over WT EGFR (in words) [1]
COc1cc(N2CCN(C)CC2)ccc1Nc1ncc(Cl)c(OC[C@H]2OC(O)[C@H](O)[C@@H]2O)n1 (stereo partly drawn) [Compound 26] | > 10 | > 10 | – | –
COc1cc(N2CCN(C)CC2)ccc1Nc1ncc(Cl)c(OC[C@H]2O[C@@H](N=[N+]=[N-])[C@H](O)[C@@H]2O)n1 [Compound 24] | > 10 | > 10 | – | –
C=CC(=O)N[C@H]1O[C@H](CO)[C@@H](Oc2nc(Nc3ccc(N4CCN(C)CC4)cc3OC)ncc2Cl)[C@H]1O[Si](C)(C)C(C)(C)C [Compound 1d, 3-O-[5-chloro-2-N-(2-methoxy-4-(4-methylpiperazin-1-yl)phenyl)pyrimidin-4-yl]-2-O-tert-butyldimethylsilyl-α-D-ribofuranosyl acrylamide] | > 10 | > 10 | no inhibitory activities; also recorded: no inhibitory activity | –
COc1cc(N2CCN(C)CC2)ccc1Nc1ncc(Cl)c(O[C@H]2[C@@H](O[Si](C)(C)C(C)(C)C)[C@H](N=[N+]=[N-])O[C@@H]2CO)n1 [Compound 25] | > 10 | > 10 | – | –
C=CC(=O)N[C@@H]1[C@@H](COc2nc(Nc3ccc(N4CCN(C)CC4)cc3OC)ncc2Cl)OC(O)[C@@H]1O (stereo partly drawn) [Compound 1b, 3-N-acryloyl-3-deoxy-5-O-[5-chloro-2-N-(2-methoxy-4-(4-methylpiperazin-1-yl)phenyl)pyrimidin-4-yl]-D-ribofuranose] | 2.64 | > 10 | – | specific inhibitory activity
C=CC(=O)NC1O[C@H](COc2nc(Nc3ccc(N4CCN(C)CC4)cc3OC)ncc2Cl)[C@@H](O)[C@H]1O (stereo partly drawn) [Compound 1c, 5-O-[5-chloro-2-N-(2-methoxy-4-(4-methylpiperazin-1-yl)phenyl)pyrimidin-4-yl]-D-ribofuranosyl acrylamide] | > 10 | > 10 | no inhibitory activities; also recorded: no inhibitory activity | –
C=CC(=O)N[C@H]1[C@H]2OC(C)(C)O[C@H]2O[C@@H]1COc1nc(Nc2ccc(N3CCN(C)CC3)cc2OC)ncc1Cl [Compound 1a, 1,2-O-isopropylidene-3-N-acryloyl-3-deoxy-5-O-[5-chloro-2-N-(2-methoxy-4-(4-methylpiperazin-1-yl)phenyl)pyrimidin-4-yl]-α-D-ribofuranoside] | 0.62 | > 10 | – | potent and specific inhibitory activity; also recorded: good selectivity
